Where “and” joins values, the source holds several entries; their conditions need not be identical. Identical values can stand only once.

For the first test, the target named is T1, progesterone receptor (PR) (Homo sapiens, UniProt P06401).
T1 construct: endogenous in cells; host or cells: T47D cells
T1 sequence (P06401 1-933): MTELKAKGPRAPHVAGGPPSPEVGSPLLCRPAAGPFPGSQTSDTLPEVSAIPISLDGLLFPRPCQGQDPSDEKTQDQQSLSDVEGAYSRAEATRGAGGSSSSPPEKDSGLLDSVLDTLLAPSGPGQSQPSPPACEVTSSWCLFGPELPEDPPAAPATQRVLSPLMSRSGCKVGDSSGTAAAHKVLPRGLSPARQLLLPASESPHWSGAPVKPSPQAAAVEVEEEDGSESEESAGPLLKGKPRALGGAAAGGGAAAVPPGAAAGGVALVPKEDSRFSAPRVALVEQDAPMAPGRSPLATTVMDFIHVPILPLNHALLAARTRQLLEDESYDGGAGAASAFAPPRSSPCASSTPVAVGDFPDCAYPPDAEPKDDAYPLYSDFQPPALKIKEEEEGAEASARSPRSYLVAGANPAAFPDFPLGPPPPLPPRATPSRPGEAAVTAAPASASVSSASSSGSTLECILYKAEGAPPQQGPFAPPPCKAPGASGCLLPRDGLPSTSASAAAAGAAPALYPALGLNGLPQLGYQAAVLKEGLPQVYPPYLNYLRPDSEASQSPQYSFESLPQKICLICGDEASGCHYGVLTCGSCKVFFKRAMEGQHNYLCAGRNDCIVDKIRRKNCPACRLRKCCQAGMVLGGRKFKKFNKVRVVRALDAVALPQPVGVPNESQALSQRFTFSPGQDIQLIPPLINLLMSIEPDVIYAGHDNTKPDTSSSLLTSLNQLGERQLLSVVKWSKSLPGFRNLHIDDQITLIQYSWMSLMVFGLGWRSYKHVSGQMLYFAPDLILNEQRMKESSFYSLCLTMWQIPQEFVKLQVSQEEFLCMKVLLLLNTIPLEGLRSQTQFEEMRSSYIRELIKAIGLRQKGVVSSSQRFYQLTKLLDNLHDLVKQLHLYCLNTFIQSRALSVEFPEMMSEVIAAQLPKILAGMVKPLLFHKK
In words: T47D cell alkaline phosphatase assay. It counts as cell-based. To be noted: T47D; read-out: Alk. Phos. % inh @ 3 μM. As to the method:
(i) Purpose: To identify progestins or antiprogestins by determining a compound's effect on alkaline phosphatase activity in T47D cells.
A. Reagents • (i) Culture Medium: • DMEM:F12 (1:1) (GIBCO, BRL) supplemented with 5% (v/v) charcoal stripped fetal bovine serum (not heat-inactivated), 100U/mL penicillin, […] streptomycin, and 2 mM the GlutaMax™ reagent (GIBCO, BRL). • (ii) Alkaline phosphatase assay buffer: • I. 0.1 M Tris-HCl, pH 9.8, containing 0.2% the Triton™ X-100 reagent; • II. 0.1 M Tris-HCl, pH 9.8 containing 4 mM p-nitrophenyl phosphate (Sigma).
B. Cell Culture and Treatment • Frozen T47D cells were thawed in a 37° C. water bath and diluted to 280,000 cells/mL in culture medium. To each well in a 96-well plate (Falcon, Becton Dickinson Labware), 180 ? L of diluted cell suspension was added. Twenty ? L of reference or test compounds diluted in the culture medium was then added to each well. […] The cells were incubated at 37° C. in a 5% CO2/humidified atmosphere for 24 hours. • Note: For high throughput screening, one concentration of each compound was tested at 0.3 mg/mL. Based on an average molecular weight of 300 g/mol for the compounds in the library, the concentration was approximately 1 mM.
C. Alkaline Phosphatase Enzyme Assay • At the end of treatment, the medium was removed from the plate. Fifty ? L of assay buffer I was added to each well. The plates were shaken in a titer plate shaker for 15 minutes. Then 150 ? L of assay buffer II was added to each well.
Square root-transformed data were used for analysis of variance and nonlinear dose response curve fitting for both agonist and antagonist modes. Huber weighting was used to downweight the effects of outliers. EC50 or IC50 values were calculated from the retransformed values. JMP software (SAS Institute, Inc.) was used for both one-way analysis of variance and non-linear dose response analyses in both single dose and dose response studies.
Consider `CC1(C)C/C(=N\O)c2ccc(-c3ccc(Cl)cc3)cc21` [Example 33, (1E)-5-(4-chlorophenyl)-3,3-dimethylindan-1-one oxime], for which the inhibition at 3 µM is 100%.
Same read-out and setting: for `COc1cccc(-c2ccc3c(c2)C(C)(C)C/C3=N\O)c1` [Example 38, (1E)-5-(3-methoxyphenyl)-3,3-dimethylindan-1-one oxime] the value was 42%; for `Cc1ccc(-c2ccc3c(c2)C(C)(C)C/C3=N\O)cc1` [Example 34, (1E)-3,3-dimethyl-5-(4-methylphenyl)indan-1-one oxime], 68%.
The same measure, in the same setting: for `Cc1cccc(-c2ccc3c(c2)C(C)(C)C/C3=N\O)c1` [Example 37, (1E)-3,3-dimethyl-5-(3-methylphenyl)indan-1-one oxime] the value was 65%; for `CC1(C)C/C(=N\O)c2ccc(-c3cccc(Cl)c3)cc21` [Example 36, (1E)-5-(3-chlorophenyl)-3,3-dimethylindan-1-one oxime], 70%; for `CC1(C)C/C(=N\O)c2ccc(-c3ccccc3Cl)cc21` [Example 40, (1E)-5-(2-chlorophenyl)-3,3-dimethylindan-1-one oxime], 62%.
With `CC1(C)C/C(=N\O)c2ccc(-c3cc(Cl)cc(Cl)c3)cc21` [Example 39, (1E)-5-(3,5-dichlorophenyl)-3,3-dimethylindan-1-one oxime], the inhibition at 3 µM amounted to 30%.
Same read-out and setting: in the case of `COc1ccc(-c2ccc3c(c2)C(C)(C)C/C3=N\O)cc1` [Example 35, (1E)-5-(4-methoxyphenyl)-3,3-dimethylindan-1-one oxime] it was 63%.
Take `CC1(C)C/C(=N\O)c2ccc(-c3cccc(Cl)c3Cl)cc21` [Example 42, (1E)-5-(2,3-dichlorophenyl)-3,3-dimethylindan-1-one oxime]: the inhibition at 3 µM was determined as 100%.

Staying with this test, now noted: read-out: Alk. Phos. IC50.
Usually IC50 stands for the concentration at which inhibition is half-maximal. For `N#Cc1cccc(-c2ccc3c(c2)CC/C3=N\O)c1` [Example 6, 3-[(1E)-1-(hydroxyimino)-2,3-dihydro-1H-inden-5-yl]benzonitrile], the IC50 was approximately 3000 nM.
In the case of `CC1C/C(=N\O)c2ccc(-c3ccc(C#N)n3C)cc21` (stereo not shown) [Example 3, 5-[(1E)-1-(hydroxyimino)-3-methyl-2,3-dihydro-1H-inden-5-yl]-1-methyl-1H-pyrrole-2-carbonitrile], the IC50 was 65 nM.
Same read-out and setting: in the case of `Cn1c(C#N)ccc1-c1ccc2c(c1)CCC/C2=N\O` [Example 15, 5-[(5E)-5-(hydroxyimino)-5,6,7,8-tetrahydronaphthalen-2-yl]-1-methyl-1H-pyrrole-2-carbonitrile] it was 32.6 nM; in that of `CC1(C)C/C(=N\O)c2ccc(-c3ccc(Cl)c(Cl)c3)cc21` [Example 41, (1E)-5-(3,4-dichlorophenyl)-3,3-dimethylindan-1-one oxime], 456 nM.
On the same count and under the same terms, in the case of `N#Cc1ccc(-c2ccc3c(c2)CC/C3=N\O)cc1` [Example 7, 4-[(1E)-1-(hydroxyimino)-2,3-dihydro-1H-inden-5-yl]benzonitrile] it was approximately 1000 nM.

In the next test the test system is T47D cells. In words: T47D cell proliferation assay (BrdU incorporation). It counts as cell-based. The settings on record: half-maximal decrease in 0.1 trimegestone induced BrdU incorporation in T47D cells; individual Exp; read-out: EC50 (Estimated IC50). As to the method: (a) Objective: Determination of progestational and antiprogestational potency by using a cell proliferation assay in T47D cells. A compound's effect on DNA synthesis in T47D cells is measured.
A. Reagents • (i) Growth medium: DMEM:F12 (1:1) (GIBCO, BRL) supplemented with 10% (v/v) fetal bovine serum (not heat-inactivated), 100U/mL penicillin, […] streptomycin, and 2 mM GlutaMax™ media (GIBCO, BRL). • (ii) Treatment medium: Minimum Essential Medium (MEM) (#51200-038GIBCO, BRL) phenol red-free supplemented with 0.5% charcoal stripped fetal bovine serum, 100U/mL penicillin, […] streptomycin, and 2 mM GlutaMax™ media (GIBCO, BRL).
B. Cell Culture • Stock T47 D cells are maintained in growth medium. […]
C. Cell Proliferation Assay • At the end of BrdU labeling, the medium is removed and BrdU incorporation is measured using a cell proliferation ELISA kit (#RPN 250, Amersham Life Science) according to manufacturer's instructions. […] L of 1 M sulfuric acid is added to each well to stop color reaction and optical density is read in a plate reader at 450 nm within 5 minutes.
D. Analysis of Results • Square root-transformed data are used for analysis of variance and nonlinear dose response curve fitting for both agonist and antagonist modes. […] EC50 or IC50 values are calculated from the retransformed values. […]
Turning to `CC#C[C@]1(O)CC[C@H]2[C@@H]3CCC4=CC(=O)CCC4=C3[C@@H](c3ccc(N(C)C)cc3)C[C@@]21C` [RU486], the IC50 was 0.016 nM and 0.018 nM.

The test is the same for the next values; noted with them: half-maximal increase in BrdU incorporation in T47D cells; individual studies (Exp); read-out: Estimated EC50.
What is called EC50 is the concentration that produces a half-maximal response. On to `C[C@H](O)C(=O)[C@@]1(C)CC[C@H]2[C@@H]3CCC4=CC(=O)CCC4=C3CC[C@@]21C` [Trimegestone], for which the concentration giving a half-maximal response (EC50) was 0.017 nM and 0.014 nM and 0.019 nM.

The test system of a further test is rat uterine decidualization. Kind of test: Rat decidualization assay. It is filed as in vivo. To be noted: p.o.; half-maximal decrease in EC50 progesterone induced decidual response; individual Exp. Here is the method: C. […] The animals are treated once daily for seven days.
Uteri are removed and trimmed of fat.
Decidual response: [(D−C)/C]×100%
On to `CC#C[C@]1(O)CC[C@H]2[C@@H]3CCC4=CC(=O)CCC4=C3[C@@H](c3ccc(N(C)C)cc3)C[C@@]21C` [RU486], for which the “Estimated IC50” value is 0.21 mg/kg and 0.14 mg/kg.

Still in this test, the particulars now being: s.c.; average of dose-response curves; rat decidual response.
As to `C#C[C@]1(O)CC[C@H]2[C@@H]3CCC4=CC(=O)CC[C@@H]4[C@H]3C(=C)C[C@@]21CC` [3-Ketodesogestrel], the “Estimated average EC50” value is reported as 0.10 mg/kg.
With `C#C[C@]1(O)CC[C@H]2[C@@H]3CCC4=CC(=O)CC[C@@H]4[C@H]3CC[C@@]21CC` [Levonorgestrel], the “Estimated average EC50” value is 0.10 mg/kg.
